Results as given in US20220016098A1, “ORALLY ADMINISTERED PHARMACEUTICAL COMPOSITION COMPRISING FAB I INHIBITORS AND METHOD FOR PREPARING SAME” (priority 2018, published 2022).
Values after ≈ are worked out from the molar mass of the structure shown. Read-outs that look alike come from different tables or passages of the source.

Experiments:
[1] = system: MRSA strains (methicillin-resistant Staphylococcus aureus); assay: MIC test on MRSA clinical isolates; type: cell-based; settings: for MIC: Staphylococcus aureus, MRSA, read-out: MIC60
Description: In order to verify the inhibitory effect of the compound of formula 1 on antibiotic-resistant strains, drug susceptibility was evaluated by treating the compound of formula 1 with Staphylococcus aureus phenotype isolated from each patient. […] Appelbaum at Hershey Hospital, who is recognized for its authority in the field of anti-infection worldwide, and about 100 MRSA strains which is currently socially problematic.

[2] = system: Staphylococcus aureus ATCC 29213 (MSSA, standard strain); assay: Susceptibility test (MIC), standard strain; type: cell-based
[3] = system: Staphylococcus aureus 13B-382 (MRSA, clinical strain); assay: Susceptibility test (MIC), clinical strain; type: cell-based
[4] = Solubility of the compound of formula 1 in various solvents (HPLC); type: physicochemical; settings: thermodynamic from solid
Description: Prior to preparing the salt of the compound of formula 1, the compound of formula 1 was analyzed to determine the solubility in various solvents. First, the compound of formula 1 was supersaturated in a pharmaceutically acceptable solvent as shown in Table 5 and stirred in a dark room at room temperature for 12 hours. It was first centrifuged to take a supernatant, and then again filtered with a 0.25 μm PVDF filter to remove insoluble materials remaining in the solution. The filtrate was diluted with methanol and then subjected to HPLC analysis to quantify the solubility. In addition, HPLC analysis conditions are as follows.
20 μL of each of the test solution and the standard solution were tested according to a liquid chromatography method (HPLC) of general test methods of the Korean Pharmacopoeia under the following conditions, and the peak area of the main component of each solution was measured.
Detector: UV spectrophotometer (measurement wavelength 286 nm)
Column: Aegispak C18-L (4.6 mm×250 mm, 5 μm) column
Column temperature: 25° C.
Mobile phase: Acetonitrile:water=3:2

[5] = Solubility in distilled water (Experimental Example 6); type: physicochemical
Description: First, an excess of each substance was added to distilled water and mixed at room temperature for 12 hours. After standing for 2 hours to take the supernatant, it was filtered using a filter having 0.25 μm pores. After diluting this in methanol again, HPLC analysis was performed.

CCCCCCCCCC(=O)N[C@@H](Cc1c[nH]c2ccccc12)C(=O)N[C@H](CC(N)=O)C(=O)N[C@@H](CC(=O)O)C(=O)N[C@@H]1C(=O)NCC(=O)N[C@@H](CCCN)C(=O)N[C@@H](CC(=O)O)C(=O)N[C@H](C)C(=O)N[C@@H](CC(=O)O)C(=O)NCC(=O)N[C@H](CO)C(=O)N[C@@H]([C@H](C)CC(=O)O)C(=O)N[C@@H](CC(=O)c2ccccc2N)C(=O)O[C@@H]1C [Daptomycin]
MIC ([1]; Methicillin-resistant, n = 100): 0.5 µg/mL (≈ 0.309 µM)

CC(=O)NC[C@H]1CN(c2ccc(N3CCOCC3)c(F)c2)C(=O)O1 [Linezolid]
MIC ([1]; Methicillin-resistant, n = 100): 1 µg/mL (≈ 2.96 µM)

CC[C@H]1OC(=O)[C@H](C)[C@@H](O[C@H]2C[C@@](C)(OC)[C@@H](O)[C@H](C)O2)[C@H](C)[C@@H](O[C@@H]2O[C@H](C)C[C@H](N(C)C)[C@H]2O)[C@](C)(O)C[C@@H](C)CN(C)[C@H](C)[C@@H](O)[C@]1(C)O [Azithromycin]
MIC ([1]; Methicillin-resistant, n = 100): > 64 µg/mL

C[C@H]1COc2c(N3CCN(C)CC3)c(F)cc3c(=O)c(C(=O)O)cn1c23 [Levofloxacin]
MIC ([1]; Methicillin-resistant, n = 100): 1 µg/mL (≈ 2.77 µM)

CN[C@H](CC(C)C)C(=O)N[C@H]1C(=O)N[C@@H](CC(N)=O)C(=O)N[C@H]2C(=O)N[C@H]3C(=O)N[C@H](C(=O)N[C@H](C(=O)O)c4cc(O)cc(O)c4-c4cc3ccc4O)[C@H](O)c3ccc(c(Cl)c3)Oc3cc2cc(c3O[C@@H]2O[C@H](CO)[C@@H](O)[C@H](O)[C@H]2O[C@H]2C[C@](C)(N)[C@H](O)[C@H](C)O2)Oc2ccc(cc2Cl)[C@H]1O [Vancomycin]
MIC [2]: 0.5 µg/mL (≈ 0.345 µM) | MIC [3]: 1 µg/mL (≈ 0.69 µM) | MIC [1]: 1 µg/mL (≈ 0.69 µM)

Teicoplanin
MIC60 ([1]; Methicillin-resistant, n = 100): 1.0 µg/mL

Cc1c(N)cccc1Cn1ccc(OCCc2cccs2)cc1=O [compound of formula 1, 1-(3-amino-2-methylbenzyl)-4-(2-thiophen-2-yl-ethoxy)-1H-pyridin-2-one]
solubility at 12 h ([4]; PEG 300, organic solvent or mixture, PEG 300, room temperature, read-out: Solubility): 22000 µg/mL | solubility at 12 h ([4]; dichloromethane, organic solvent or mixture, Dichloromethane, room temperature, read-out: Solubility): > 50000 µg/mL | solubility at 12 h ([4]; methanol, organic solvent or mixture, Methanol, room temperature, read-out: Solubility): < 10000 µg/mL | solubility at 12 h ([4]; pH 1.2 aqueous solution, pH 1.2, simulated gastric fluid, pH 1.2 aqueous solution, room temperature, read-out: Solubility): ~900 µg/mL | solubility at 12 h ([4]; water, Water, room temperature, read-out: Solubility): 2 µg/mL | solubility at 12 h ([4]; water, distilled water / water (neutral), read-out: Solubility in water): 2.5 µg/mL | pH ([5]; of the solubility test in distilled water): 6.8 | solubility at 12 h ([5]; pH 6.8, thermodynamic from solid, distilled water, room temperature, 12 hours): 2.5 µg/mL
